Reference: patent US20210085711A1 (Japan Tobacco Inc., priority 2017, published 2021)

Columns and labels:
Assay type in all cases: in vivo, human
[1] = tested on: patients with hypermenorrhea and/or patients with hypermenorrhea-associated gynecologic diseases (iron-deficiency anemia patients); experiment: Phase II clinical trial of JTT-751: C-terminal FGF23 value (cFGF23)
Experimental: (§1) This test was a three-stage safety and efficacy clinical trial at multi-facilities. The first stage was a pre-observation period (Day −40 to Day −1), the second stage was an administration period (Day 1 to Day 48) (efficacy and safety evaluation period), and the third stage was a post-observation period (Day 49 to Day 63) (efficacy and safety evaluation period). The safety evaluation and efficacy evaluation were performed by multi-facility collaboration, placebo control, random allocation, double-blind trial, and parallel group comparison test.
(§2) (1) Japanese patients who are 20 or more and less than 65 years old at the time of agreement and can visit an outpatient clinic (2) Patients who have an Hb value (measured using HemoCue® Hb 201 DM analyzer in the institute of clinical practice) of 7.0 g/dL or more and less than 11.0 g/dL on both the observation start date and Week 0, and the difference between the two days is 1.0 g/dL or less (3) Patients with a TIBC of 360 μg/dL or more or a serum ferritin value of less than 12 ng/mL on the observation start date
(§3) The administration period of the trial drug is seven weeks which starts from the next day of the Week 0 visit to the day before the Week 7 visit, provided that the trial drug is not taken on the scheduled Week 3 visit.
(§4) The blood hemoglobin value (Hb), the serum iron level, the serum ferritin value, the total iron-binding capacity (TIBC) and the transferrin saturation rate (TSAT), and the mean corpuscular volume (MCV) were each examined at the observation start date, Week 0, Week 3, Week 7, the end of administration and the consultation at nine weeks after Week 0; the hepcidin concentration (Hepcidin 25) and the serum soluble transferrin receptor concentration (sTfR) were each examined on Week 0, Week 3 and Week 7 and at the end of administration; and the C-terminal FGF23 value (cFGF23) and the intact FGF23 value (iFGF23) were each examined on Week 0 and Week 7 and at the end of administration.

[2] = tested on: patients with hypermenorrhea and/or patients with hypermenorrhea-associated gynecologic diseases (iron-deficiency anemia patients); experiment: Phase II clinical trial of JTT-751: mean corpuscular volume value (MCV)
Experimental: as §1, §2, §3
(§5) (2) Subsidiary evaluation items 1) Erythrocyte-related examination values and amount of change from Week 0 at each observation date 2) Iron-related test values and amount of change from Week 0 at each observation date 3) Achievement rate of target Hb value (female; 12.0 g/dL or more, male; 13.0 g/dL or more) at each observation date 4) Achievement rate of 1.0 g/dL or more and achievement rate of 2.0 g/dL or more in Hb value improvement from Week 0 at each observation date 5) Average daily change of Hb value from Week 0 to each observation date
as §4

[3] = tested on: patients with hypermenorrhea and/or patients with hypermenorrhea-associated gynecologic diseases (iron-deficiency anemia patients); experiment: Phase II clinical trial of JTT-751: serum iron level
Experimental: as §1, §2, §3, §5, §4

[4] = 250 mg/day, End of administration
[5] = 500 mg/day, End of administration
[6] = 1000 mg/day, End of administration
[7] = 1500 mg/day, End of administration
[8] = 9 weeks after Week 0, JTT-751 250 mg group
[9] = 9 weeks after Week 0, JTT-751 500 mg group
[10] = 9 weeks after Week 0, JTT-751 1000 mg group
[11] = 9 weeks after Week 0, JTT-751 1500 mg group
[12] = Administration start date, JTT-751 250 mg group
[13] = Administration start date, JTT-751 500 mg group
[14] = Administration start date, JTT-751 1000 mg group
[15] = Administration start date, JTT-751 1500 mg group
[16] = End of administration, JTT-751 250 mg group
[17] = End of administration, JTT-751 500 mg group
[18] = End of administration, JTT-751 1000 mg group
[19] = End of administration, JTT-751 1500 mg group
[20] = Week 0 (baseline), JTT-751 250 mg group
[21] = Week 0 (baseline), JTT-751 500 mg group
[22] = Week 0 (baseline), JTT-751 1000 mg group
[23] = Week 0 (baseline), JTT-751 1500 mg group
[24] = 250 mg/day, 9 weeks after Week 0
[25] = 250 mg/day, Week 3 (Week 0 not given)
[26] = 500 mg/day, 9 weeks after Week 0
[27] = 500 mg/day, Week 3 (Week 0 not given)
[28] = 1000 mg/day, 9 weeks after Week 0
[29] = 1000 mg/day, Week 3 (Week 0 not given)
[30] = 1500 mg/day, 9 weeks after Week 0
[31] = 1500 mg/day, Week 3 (Week 0 not given)

Substance: Ferric citrate [JTT-751]
- cFGF23, Mean [1, 4]: 214.72 RU/mL
- cFGF23, Median [1, 4]: 158.50 RU/mL
- cFGF23, Mean ([1]; 250 mg/day, Week 0 (baseline)): 779.17 RU/mL
- cFGF23, Median ([1]; 250 mg/day, Week 0 (baseline)): 705.00 RU/mL
- cFGF23, Mean ([1]; 250 mg/day, Week 7): 214.72 RU/mL
- cFGF23, Median ([1]; 250 mg/day, Week 7): 158.50 RU/mL
- cFGF23, Mean [1, 5]: 151.89 RU/mL
- cFGF23, Median [1, 5]: 127.50 RU/mL
- cFGF23, Mean ([1]; 500 mg/day, Week 0 (baseline)): 1011.06 RU/mL
- cFGF23, Median ([1]; 500 mg/day, Week 0 (baseline)): 773.50 RU/mL
- cFGF23, Mean ([1]; 500 mg/day, Week 7): 151.89 RU/mL
- cFGF23, Median ([1]; 500 mg/day, Week 7): 127.50 RU/mL
- cFGF23, Mean [1, 6]: 130.39 RU/mL
- cFGF23, Median [1, 6]: 100.00 RU/mL
- cFGF23, Mean ([1]; 1000 mg/day, Week 0 (baseline)): 675.16 RU/mL
- cFGF23, Median ([1]; 1000 mg/day, Week 0 (baseline)): 564.00 RU/mL
- cFGF23, Mean ([1]; 1000 mg/day, Week 7): 130.39 RU/mL
- cFGF23, Median ([1]; 1000 mg/day, Week 7): 100.00 RU/mL
- cFGF23, Mean [1, 7]: 114.92 RU/mL
- cFGF23, Median [1, 7]: 94.20 RU/mL
- cFGF23, Mean ([1]; 1500 mg/day, Week 0 (baseline)): 842.52 RU/mL
- cFGF23, Median ([1]; 1500 mg/day, Week 0 (baseline)): 777.00 RU/mL
- cFGF23, Mean ([1]; 1500 mg/day, Week 7): 114.92 RU/mL
- cFGF23, Median ([1]; 1500 mg/day, Week 7): 94.20 RU/mL
- C-terminal FGF23 value (cFGF23), time-dependent change ([1]; continuous administration): decreased along with the continuous administration
- MCV, Mean [2, 8]: 78.9 fL
- MCV, Median [2, 8]: 79.0 fL
- MCV, Mean [2, 9]: 80.8 fL
- MCV, Median [2, 9]: 81.0 fL
- MCV, Mean [2, 10]: 83.9 fL
- MCV, Median [2, 10]: 84.0 fL
- MCV, Mean [2, 11]: 82.4 fL
- MCV, Median [2, 11]: 82.5 fL
- MCV, Mean [2, 12]: 71.5 fL
- MCV, Median [2, 12]: 73.0 fL
- MCV, Mean [2, 13]: 71.9 fL
- MCV, Median [2, 13]: 72.0 fL
- MCV, Mean [2, 14]: 72.5 fL
- MCV, Median [2, 14]: 71.0 fL
- MCV, Mean [2, 15]: 71.0 fL
- MCV, Median [2, 15]: 69.0 fL
- MCV, Mean [2, 16]: 78.4 fL
- MCV, Median [2, 16]: 79.5 fL
- MCV, Mean [2, 17]: 79.8 fL
- MCV, Median [2, 17]: 81.0 fL
- MCV, Mean [2, 18]: 82.5 fL
- MCV, Median [2, 18]: 82.0 fL
- MCV, Mean [2, 19]: 81.4 fL
- MCV, Median [2, 19]: 81.0 fL
- MCV, Mean [2, 20]: 70.8 fL
- MCV, Median [2, 20]: 72.0 fL
- MCV, Mean [2, 21]: 70.9 fL
- MCV, Median [2, 21]: 70.5 fL
- MCV, Mean [2, 22]: 72.4 fL
- MCV, Median [2, 22]: 70.0 fL
- MCV, Mean [2, 23]: 70.6 fL
- MCV, Median [2, 23]: 68.0 fL
- mean corpuscular volume value (MCV), time-dependent change ([2]; Week 0, Week 3 and Week 7): increased along with the continuous administration
- MCV, Mean ([2]; Week 3, JTT-751 250 mg group): 73.9 fL
- MCV, Median ([2]; Week 3, JTT-751 250 mg group): 74.0 fL
- MCV, Mean ([2]; Week 3, JTT-751 500 mg group): 75.3 fL
- MCV, Median ([2]; Week 3, JTT-751 500 mg group): 75.0 fL
- MCV, Mean ([2]; Week 3, JTT-751 1000 mg group): 78.3 fL
- MCV, Median ([2]; Week 3, JTT-751 1000 mg group): 77.0 fL
- MCV, Mean ([2]; Week 3, JTT-751 1500 mg group): 76.7 fL
- MCV, Median ([2]; Week 3, JTT-751 1500 mg group): 77.0 fL
- MCV, Mean ([2]; Week 7, JTT-751 250 mg group): 78.4 fL
- MCV, Median ([2]; Week 7, JTT-751 250 mg group): 79.5 fL
- MCV, Mean ([2]; Week 7, JTT-751 500 mg group): 79.8 fL
- MCV, Median ([2]; Week 7, JTT-751 500 mg group): 81.0 fL
- MCV, Mean ([2]; Week 7, JTT-751 1000 mg group): 82.5 fL
- MCV, Median ([2]; Week 7, JTT-751 1000 mg group): 82.0 fL
- MCV, Mean ([2]; Week 7, JTT-751 1500 mg group): 81.4 fL
- MCV, Median ([2]; Week 7, JTT-751 1500 mg group): 81.0 fL
- mean corpuscular volume value (MCV) at the end of administration ([2]; end of administration): a value around the normal value
- Serum iron, Mean [3, 24]: 14.3 µg/dL
- Serum iron, Median [3, 24]: 13.0 µg/dL
- Serum iron, Mean [3, 4]: 30.4 µg/dL
- Serum iron, Median [3, 4]: 25.0 µg/dL
- Serum iron, Mean [3, 25]: 19.9 µg/dL
- Serum iron, Median [3, 25]: 18.5 µg/dL
- Serum iron, Mean ([3]; 250 mg/day, Week 7): 30.4 µg/dL
- Serum iron, Median ([3]; 250 mg/day, Week 7): 25.0 µg/dL
- Serum iron, Mean [3, 26]: 24.6 µg/dL
- Serum iron, Median [3, 26]: 18.0 µg/dL
- Serum iron, Mean [3, 5]: 40.1 µg/dL
- Serum iron, Median [3, 5]: 42.5 µg/dL
- Serum iron, Mean [3, 27]: 29.6 µg/dL
- Serum iron, Median [3, 27]: 13.5 µg/dL
- Serum iron, Mean ([3]; 500 mg/day, Week 7): 40.1 µg/dL
- Serum iron, Median ([3]; 500 mg/day, Week 7): 42.5 µg/dL
- serum iron level on Week 3 ([3]; 1000 mg administration group and 1500 mg administration group, Week 3): improved to a normal value
- Serum iron, Mean [3, 28]: 40.3 µg/dL
- Serum iron, Median [3, 28]: 38.0 µg/dL
- Serum iron, Mean [3, 6]: 48.3 µg/dL
- Serum iron, Median [3, 6]: 52.0 µg/dL
- Serum iron, Mean [3, 29]: 55.5 µg/dL
- Serum iron, Median [3, 29]: 36.0 µg/dL
- Serum iron, Mean ([3]; 1000 mg/day, Week 7): 48.3 µg/dL
- Serum iron, Median ([3]; 1000 mg/day, Week 7): 52.0 µg/dL
- Serum iron, Mean [3, 30]: 38.1 µg/dL
- Serum iron, Median [3, 30]: 34.0 µg/dL
- Serum iron, Mean [3, 7]: 54.4 µg/dL
- Serum iron, Median [3, 7]: 46.0 µg/dL
- Serum iron, Mean [3, 31]: 53.1 µg/dL
- Serum iron, Median [3, 31]: 27.0 µg/dL
- Serum iron, Mean ([3]; 1500 mg/day, Week 7): 54.4 µg/dL
- Serum iron, Median ([3]; 1500 mg/day, Week 7): 46.0 µg/dL
- serum iron level, increased to a normal value ([3]; continuous administration, Week 0, Week 3 and Week 7): about 50 μg/dL
